Laboratory results from the NIST ThermoML archive (doi:10.1021/acs.jced.5b00537).

How the values were obtained:
[1] = Liquid; for viscosity: Cone and plate viscometry; for mass density: Vibrating tube method; for vapor or sublimation pressure: Ebulliometric method (Recirculating still)
[2] = xn = mol fraction of the nth substance listed; details: 100 kPa, Liquid, x2 = 0; for viscosity: Cone and plate viscometry; for mass density: Vibrating tube method

CC(C)CO [2-methyl-1-propanol]
[1]
Details | mass density, 101 kPa [kg/m3] | mass density, 101.33 kPa [kg/m3] | viscosity, 101 kPa [mPa·s]
293.15 K | 801.75 | – | 4.315
298.15 K | – | 797.83 | –
303.15 K | 794.16 | – | 3.089
313.15 K | 786.27 | – | 2.261
323.15 K | 778.28 | – | 1.701
333.15 K | 769.74 | – | 1.29
343.15 K | 760.83 | – | –
353.15 K | 751.67 | – | –
363.15 K | 741.9 | – | –

[1]
Details | vapor or sublimation pressure [kPa]
296.87 K | 1.391
298.77 K | 1.593
300.53 K | 1.796
302.12 K | 1.995
302.29 K | 2
302.3 K | 2
309.88 K | 3.289
311.74 K | 3.692
313.42 K | 4.095
314.93 K | 4.489
316.71 K | 4.991
316.78 K | 4.995
322.51 K | 6.986
323.97 K | 7.587
325.33 K | 8.182
326.61 K | 8.784
327.82 K | 9.384
329.01 K | 9.99
329.02 K | 9.989
336.03 K | 14.47
337.45 K | 15.56
338.83 K | 16.66
340.11 K | 17.76
342.37 K | 19.95
342.51 K | 19.99
342.52 K | 19.99
357.51 K | 39.95
357.52 K | 39.94
362.71 K | 49.87
367.13 K | 59.85
370.94 K | 69.83
374.36 K | 79.82
377.44 K | 89.76
378.97 K | 94.99

CC(C)CO [2-methyl-1-propanol] + CCC(C)(C)O
[2]
Details | mass density [kg/m3] | viscosity [mPa·s]
293.15 K | 801.75 | 4.315
303.15 K | 794.16 | 3.089
313.15 K | 786.27 | 2.261
323.15 K | 778.28 | 1.701
333.15 K | 769.74 | 1.29
343.15 K | 760.83 | –
353.15 K | 751.67 | –
363.15 K | 741.9 | –

CCC(C)(C)O [2-methylbutan-2-ol]
[1]
Details | mass density, 101 kPa [kg/m3] | mass density, 101.33 kPa [kg/m3] | viscosity, 101 kPa [mPa·s]
293.15 K | 808.77 | – | 4.596
298.15 K | – | 804.28 | –
303.15 K | 799.74 | – | 2.983
313.15 K | 790.35 | – | 2.078
323.15 K | 780.66 | – | 1.494
333.15 K | 770.4 | – | 1.093
343.15 K | 759.8 | – | –
353.15 K | 749.13 | – | –
363.15 K | 738.77 | – | –

[1]
Details | vapor or sublimation pressure [kPa]
296.61 K | 1.992
296.7 K | 1.99
297.94 K | 2.19
299.29 K | 2.388
300.33 K | 2.589
301.46 K | 2.791
302.54 K | 2.999
310.7 K | 4.984
311.35 K | 5.181
311.98 K | 5.383
312.29 K | 5.49
313.76 K | 5.991
315.13 K | 6.487
316.4 K | 6.987
317.37 K | 7.387
322.63 K | 9.978
322.92 K | 10
323.15 K | 10.18
323.49 K | 10.38
323.84 K | 10.58
324.14 K | 10.78
324.51 K | 10.97
325.37 K | 11.57
326.73 K | 12.38
327.62 K | 12.97
327.81 K | 13.17
329.05 K | 13.97
330.38 K | 14.96
336.11 K | 19.94
336.26 K | 19.99
337.58 K | 21.45
338.97 K | 22.94
340.32 K | 24.44
341.57 K | 25.93
341.59 K | 25.92
342.39 K | 26.94
348.11 K | 34.91
351.17 K | 39.89
351.33 K | 39.95
353.93 K | 44.88
356.46 K | 49.88
361.02 K | 59.92
372.63 K | 93.14
373.16 K | 94.89
373.29 K | 95.01
373.6 K | 96.54
374.05 K | 98.01
374.53 K | 99.81
374.93 K | 101.04
376.03 K | 104.99
377.33 K | 109.95
378.63 K | 115.02
379.87 K | 120.01
381.05 K | 124.96
